Measured values from patent US9108983B2, “Pyrrole compounds, a process for their preparation and pharmaceutical compositions containing them” (LES LABORATOIRES SERVIER, priority 2013, dated 2015).
Counter-ions that a name gives are not always drawn.

Columns and labels:
[1] = test system: cleaved (activated) form of caspase 3 in RS4;11 leukaemia cell xenograft tumours; test: Quantification of the cleaved form of caspase 3 in vivo (MSD ELISA); set-up: species or system mice (SCID strain); conditions: Mus musculus, cleaved caspase 3 MSD test, oral route, tumour removed after 2 hours, read-out: Activation factor ± SEM (versus control)
Description: The ability of the compounds of the invention to activate caspase 3 is evaluated in a xenograft model of RS4;11 leukaemia cells.
1×10^7 RS4;11 cells are grafted sub-cutaneously into immunosuppressed mice (SCID strain). 25 to 30 days after the graft, the animals are treated orally with the various compounds. After treatment, the tumour masses are recovered and lysed, and the cleaved (activated) form of caspase 3 is quantified in the tumour lysates.
The quantification is carried out using the “Meso Scale Discovery (MSD) ELISA platform” test, which specifically assays the cleaved form of caspase 3. It is expressed in the form of an activation factor corresponding to the ratio between the quantity of cleaved caspase 3 in the treated mice divided by the quantity of cleaved caspase 3 in the control mice.

Bcl-2 protein = Bcl-2 protein (histag-Bcl-2, UniProtKB P10415) (Homo sapiens (Human), UniProt P10415); test: Inhibition of Bcl-2 by the fluorescence polarisation technique; type: binding; conditions: incubation for 2 hours, read-out: IC50 (nM) Bcl-2 FP
Chain of Bcl-2 protein (P10415 whole entry): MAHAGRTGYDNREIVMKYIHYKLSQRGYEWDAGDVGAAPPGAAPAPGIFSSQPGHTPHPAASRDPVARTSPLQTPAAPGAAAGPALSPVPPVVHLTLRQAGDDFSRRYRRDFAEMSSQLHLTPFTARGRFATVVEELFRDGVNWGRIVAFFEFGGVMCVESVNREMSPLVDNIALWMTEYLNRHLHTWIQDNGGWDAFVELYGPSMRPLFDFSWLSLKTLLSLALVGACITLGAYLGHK
Outline: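 Fluorescence polarisation competition: His-tagged Bcl-2 (2.50×10^−8 M final) with fluorescein-labelled peptide (1.00×10^−8 M final) in 10 mM Hepes, 150 mM NaCl, 0.05% Tween20, pH 7.4. Increasing compound concentrations were added. Polarisation was read after 2 h incubation.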

[2] = test system: RS4;11 leukaemia tumour line; test: In vitro cytotoxicity (Microculture Tetrazolium Assay); type: cell-based; conditions: Homo sapiens, RS4-11, 48 h, RS4;11 cells, exposed for 48 hours, cell viability; read-out: IC50 (nM) MTT RS4;11
Description: The cytotoxicity studies were carried out on the RS4;11 leukaemia tumour line.
The cells are distributed onto microplates and exposed to the test compounds for 48 hours.
The cell viability is then quantified by a colorimetric assay, the Microculture Tetrazolium Assay (Cancer Res., 1987, 47, 939-942).

For `Cc1c(C(=O)N(c2ccc(O)cc2)c2cnc3c(ccn3C)c2)cc(-c2cc(Cl)ccc2C(=O)N2Cc3ccccc3C[C@H]2CN2CCOCC2)n1C` [Example 71, 5-(5-Chloro-2-{[(3S)-3-(morpholin-4-ylmethyl)-3,4-dihydroisoquinolin-2(1H)-yl]carbonyl}phenyl)-N-(4-hydroxyphenyl)-1,2-dimethyl-N-(1-methyl-1H-pyrrolo[2,3-b]pyridin-5-yl)-1H-pyrrole-3-carboxamide hydrochloride], the fold induction at 25 mg/kg [1] was 46.8 ± 16.1, the IC50 (Bcl-2 protein) was 6.1 nM and the IC50 [2] was 12.9 nM.

In the case of `Cc1c(C(=O)N(c2ccc(O)cc2)c2cc(C#N)n(C)c2)cc(-c2cc(F)ccc2C(=O)N2Cc3ccccc3C[C@H]2CN2CCOCC2)n1C` [Example 230, N-(5-Cyano-1-methyl-1H-pyrrol-3-yl)-5-(5-fluoro-2-{[(3S)-3-(morpholin-4-ylmethyl)-3,4-dihydroisoquinolin-2(1H)-yl]carbonyl}phenyl)-N-(4-hydroxyphenyl)-1,2-dimethyl-1H-pyrrole-3-carboxamide hydrochloride], the fold induction at 25 mg/kg [1] is reported as 42.2 ± 9.3, the IC50 (Bcl-2 protein) is reported as 5.1 nM and the IC50 [2] is reported as 18.3 nM.

`Cc1c(C(=O)N(c2ccc(O)cc2)c2cnn(C)c2)cc(-c2cc(Cl)ccc2C(=O)N2Cc3ccccc3C[C@H]2CN2CCOCC2)n1C` [Example 25, 5-(5-Chloro-2-{[(3S)-3-(morpholin-4-ylmethyl)-3,4-dihydroisoquinolin-2(1H)-yl]carbonyl}phenyl)-N-(4-hydroxyphenyl)-1,2-dimethyl-N-(1-methyl-1H-pyrazol-4-yl)-1H-pyrrole-3-carboxamide hydrochloride] was tested, and the fold induction at 25 mg/kg [1] was 45.7 ± 2, the IC50 (Bcl-2 protein) was 4 nM and the IC50 [2] was 33.3 nM.

For `Cc1c(C(=O)N(c2ccc(O)cc2)c2ccc3c(c2)ncn3C)cc(-c2cc(Cl)ccc2C(=O)N2Cc3ccccc3C[C@H]2CN2CCOCC2)n1C` [Example 72, 5-(5-Chloro-2-{[(3S)-3-(morpholin-4-ylmethyl)-3,4-dihydroisoquinolin-2(1H)-yl]carbonyl}phenyl)-N-(4-hydroxyphenyl)-1,2-dimethyl-N-(1-methyl-1H-benzimidazol-5-yl)-1H-pyrrole-3-carboxamide], the IC50 (Bcl-2 protein) was 7.7 nM and the IC50 [2] was 43.6 nM.

`Cc1c(C(=O)N(c2ccc(O)cc2)c2cnn(C)c2)cc(-c2cc3c(cc2C(=O)N2Cc4ccccc4C[C@H]2CN2CCOCC2)OCO3)n1C` [Example 47, N-(4-Hydroxyphenyl)-1,2-dimethyl-N-(1-methyl-1H-pyrazol-4-yl)-5-(6-{[(3S)-3-(morpholin-4-ylmethyl)-3,4-dihydroisoquinolin-2(1H)-yl]carbonyl}-1,3-benzodioxol-5-yl)-1H-pyrrole-3-carboxamide hydrochloride] showed a fold induction at 25 mg/kg [1] of 12.3 ± 2.4, an IC50 (Bcl-2 protein) of 5.9 nM and an IC50 [2] of 44.5 nM.

Compound `Cc1c(C(=O)N(c2ccc(O)cc2)c2cnn(C)c2)cc(-c2cc3c(cc2C(=O)N2Cc4ccccc4C[C@H]2C)OCO3)n1C` [Example 39, N-(4-Hydroxyphenyl)-1,2-dimethyl-5-(6-{[(3R)-3-methyl-3,4-dihydroisoquinolin-2(1H)-yl]carbonyl}-1,3-benzodioxol-5-yl)-N-(1-methyl-1H-pyrazol-4-yl)-1H-pyrrole-3-carboxamide] has an IC50 (Bcl-2 protein) of 7.2 nM and an IC50 [2] of 19.7 nM.

In the case of `Cc1c(N(C(=O)c2cc(-c3cc4c(cc3C(=O)N3Cc5ccccc5C[C@H]3CN3CCOCC3)OCCO4)n(C)c2C)c2ccc(O)cc2)cc(C#N)n1C` [Example 413, N-(5-Cyano-1,2-dimethyl-1H-pyrrol-3-yl)-N-(4-hydroxyphenyl)-1,2-dimethyl-5-(7-{[(3S)-3-(morpholin-4-ylmethyl)-3,4-dihydroisoquinolin-2(1H)-yl]-carbonyl}-2,3-dihydro-1,4-benzodioxin-6-yl)-1H-pyrrole-3-carboxamide hydrochloride], the IC50 (Bcl-2 protein) is reported as 3.1 nM and the IC50 [2] is reported as 9.43 nM.

`Cc1c(C(=O)N(c2ccc(O)c(F)c2)c2cnn(C)c2)cc(-c2cc3c(cc2C(=O)N2Cc4ccccc4C[C@H]2CN2CCOCC2)OCO3)n1C` [Example 396, N-(3-Fluoro-4-hydroxyphenyl)-1,2-dimethyl-N-(1-methyl-1H-pyrazol-4-yl)-5-(6-{[(3S)-3-(morpholin-4-ylmethyl)-3,4-dihydroisoquinolin-2(1H)-yl]carbonyl}-1,3-benzodioxol-5-yl)-1H-pyrrole-3-carboxamide hydrochloride] showed an IC50 (Bcl-2 protein) of 15.7 nM and an IC50 [2] of 116 nM.

Compound `Cc1c(C(=O)N(c2ccc(O)cc2)c2cnc3c(c2)CCN3C)cc(-c2cc(Cl)ccc2C(=O)N2Cc3ccccc3C[C@H]2CN2CCOCC2)n1C` [Example 388, 5-(5-Chloro-2-{[(3S)-3-(morpholin-4-ylmethyl)-3,4-dihydroisoquinolin-2(1H)-yl]carbonyl}phenyl)-N-(4-hydroxyphenyl)-1,2-dimethyl-N-(1-methyl-2,3-dihydro-1H-pyrrolo[2,3-b]pyridin-5-yl)-1H-pyrrole-3-carboxamide dihydrochloride] has a fold induction at 25 mg/kg [1] of 85.7 ± 3.7, an IC50 (Bcl-2 protein) of 3.6 nM and an IC50 [2] of 16.5 nM.

Work on `Cc1c(C(=O)N(C)c2ccc(O)cc2)cc(-c2cc(CCNS(=O)(=O)CCc3ccc(F)cc3)ccc2C(=O)N2Cc3ccccc3C[C@H]2C)n1C` [Example 55, 5-(5-[2-({[2-(4-Fluorophenyl)ethyl]sulphonyl}amino)ethyl]-2-{[(3R)-3-methyl-3,4-dihydroisoquinolin-2(1H)-yl]carbonyl}phenyl)-N-(4-hydroxyphenyl)-N,1,2-trimethyl-1H-pyrrole-3-carboxamide] yielded an IC50 (Bcl-2 protein) of 210 nM and an IC50 [2] of over 600 nM.
